In ChEMBL document CHEMBL3785085, “Pharmacokinetics of single and multiple doses of phenytoin in man” (Eur J Clin Pharmacol, 1974):

How the values were obtained:
[1] = Apparent volume of distribution (area) in healthy human volunteer (5 volunteers) at 5 mg/kg, iv administered as single dose through infusion by gas chromatographic method; type: ADME, organism-based; conditions: in vivo, read-out: Vd(app)
[2] = Half life in healthy human volunteer (5 volunteers) at 5 mg/kg, iv administered as single dose through infusion by gas chromatographic method; type: ADME, organism-based; conditions: in vivo
[3] = Half life in healthy human volunteer (5 volunteers) at 5 mg/kg, po administered as single dose by gas chromatographic method; type: ADME, organism-based; conditions: in vivo
[4] = Half life at post steady state in healthy human volunteer (5 volunteers) at 2 mg/kg, po bid administered for 12 days by gas chromatographic method; type: ADME, organism-based; conditions: in vivo
[5] = Half life during steady state in healthy human volunteer (5 volunteers) at 2 mg/kg, po bid administered for 12 days by gas chromatographic method; type: ADME, organism-based; conditions: in vivo
[6] = Total plasma clearance in healthy human volunteer (5 volunteers) at 5 mg/kg, iv administered as single dose by gas chromatographic method; type: ADME, organism-based
Plasma = experiment: Plasma concentration at steady state in healthy human volunteer (5 volunteers) at 2 mg/kg, po bid administered for 12 days by gas chromatographic method; type: ADME, organism-based; conditions: in vivo, 288 h
[7] = Drug uptake in healthy human volunteer (5 volunteers) at 5 mg/kg, iv administered as single dose through infusion after 0.5 hrs by gas chromatographic method; type: ADME, organism-based; conditions: in vivo, read-out: Drug uptake
[8] = Cmax in healthy human volunteer (5 volunteers) at 5 mg/kg, po administered as single dose by gas chromatographic method; type: ADME, organism-based; design: dose 5 mg/kg, route oral; conditions: in vivo
Homo sapiens = experiment: Anticonvulsant activity in po dose patient assessed as compound level in plasma required to decrease epileptic seizure; type: functional

**Q.** With `O=C1N=C([O-])NC1(c1ccccc1)c1ccccc1.[Na+]` [PHENYTOIN SODIUM] as the compound, how does the Vd [1] read?
**A.** Its Vd is 0.52 L/kg.

**Q.** What about the half-life [2] of the same compound?
**A.** The half-life was 870 min.

**Q.** And the half-life [3]?
**A.** The half-life was 996 min.

**Q.** What about the half-life [4] of the same compound?
**A.** The half-life was 954 min.

**Q.** What about the half-life [5] of the same compound?
**A.** The half-life was 1280 min.

**Q.** What about the clearance [6] of the same compound?
**A.** The clearance was 0.367 mL/min/kg.

**Q.** And the Cpss (Plasma)?
**A.** Its Cpss is 5.3 µg/mL.

**Q.** What about the concentration at 0.5 h [7] of the same compound?
**A.** Its concentration at 0.5 h is 8400 ng/mL.

**Q.** And the Cmax [8]?
**A.** The Cmax was 2600 ng/mL.

**Q.** What about the MEC (Homo sapiens) of the same compound?
**A.** The MEC was 10 µg/mL.
